Experimental findings from paper PMC9942528 (Journal of medicinal chemistry, 2022) are described below.

For data set [1], the system named is mouse microglial N9 cells. Put plainly: Cytotoxicity, MTT assay in N9 cells. It counts as cell-based. In general terms: Tetrazolium assays rely on reduction of a dye to a coloured formazan, in cell work by metabolically active cells.
Data set [2] in a line: Stability assay in rat liver microsomes. It counts as in vitro ADME. The following applies: for less stable than (R)- and (S)-11b, (R)- and (S)-11c, and 2: recovery after 30 min; for less stable than (R)- and (S)-11b, (R)- and (S)-11c, and 2 / Metabolic stability, % after 30 min incubation: rat microsomes; for microsomal CLint at 2 h, 10 µM: pH 7.4; for Metabolic stability, % after 30 min incubation: 10 μM, parent remaining. Background: Liver microsomes are a subcellular fraction often used to study metabolism.

The target in data set [3] is T1, human FPR2 (Homo sapiens, UniProt P25090).
T1 sequence (P25090 1-351): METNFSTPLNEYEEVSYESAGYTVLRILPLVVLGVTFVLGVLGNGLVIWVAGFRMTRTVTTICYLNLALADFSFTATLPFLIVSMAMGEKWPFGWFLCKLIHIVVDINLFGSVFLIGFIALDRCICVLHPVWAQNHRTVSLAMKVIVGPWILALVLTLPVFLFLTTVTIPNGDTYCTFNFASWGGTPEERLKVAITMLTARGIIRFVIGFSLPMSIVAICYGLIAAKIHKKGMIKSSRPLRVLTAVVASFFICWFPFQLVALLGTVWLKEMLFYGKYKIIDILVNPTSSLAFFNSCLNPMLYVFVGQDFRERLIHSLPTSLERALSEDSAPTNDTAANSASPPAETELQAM
Particulars: functional antagonism vs WKYMVM.

The target in data set [4] is T1, human FPR2. Put plainly: Ca2+ mobilization. The following applies: for increase in FPR2 potency as compared to 2: ratio of EC50 values. (In general: Calcium assays in cells follow changes in intracellular calcium, usually with a dye or a luminescent sensor.)
In data set [5] the test system is murine N9 cells. Put plainly: ELISA of TNF-α and IL-1β in N9 cells, resting and LPS-stimulated. In kind it is cell-based, mouse. Particulars: for release of IL-1β and TNF-α under resting conditions: 0.5 to 5 μM; for effect on LPS-induced cytokines (IL-1β, TNF-α) production: LPS 100 ng/mL 24 h.
Data set [6] relates to rat primary microglial cells. The data set is described as follows: LDH release assay in rat primary microglial cells. Particulars: for effect on LPS-induced cell death (LDH release): 0.1 μM, LPS 100 ng/mL 24 h; for effect on cell viability (LDH) under resting conditions: rat primary microglial cells.
For data set [7], the system named is caspase-3. The data set is described as follows: Caspase-3 activity in rat primary microglial cells. Particulars: 0.1 μM, LPS 100 ng/mL 24 h. It counts as cell-based.
Data set [8] concerns rat primary microglial cells. Put plainly: Nitric oxide. In kind it is cell-based. Particulars: for effect on LPS-induced NO production: 0.1 μM, LPS 100 ng/mL 24 h; for effect on NO production under resting conditions: rat primary microglial cells.
Data set [9] is described as follows: In vivo pharmacokinetics in mice. The following applies: for Tmax: male, CD-1, mouse, plasma.
Setting [10] is: rat, rat liver microsomes, pH 7.4, half-life.

In the case of `N#Cc1ccc(C[C@@H](NC(=O)Nc2ccc(F)cc2)C(=O)N2CCCCC2)cc1` [(R)-11b, (R)-1-(3-(4-Cyanophenyl)-1-oxo-1-(piperidin-1-yl)propan-2-yl)-3-(4-fluorophenyl)urea], the “cytotoxic effect in the MTT test” value in [1] is recorded as “did not exert any cytotoxic effects”.
With `N#Cc1ccc(C[C@H](NC(=O)Nc2ccc(F)cc2)C(=O)N2CCCc3ccccc32)cc1` [(S)-11g, (S)-1-(3-(4-Cyanophenyl)-1-(3,4-dihydroquinolin-1(2H)-yl)-1-oxopropan-2-yl)-3-(4-fluorophenyl)urea], the “less stable than (R)- and (S)-11b, (R)- and (S)-11c, and 2” value (from here on “less stable than (R)- and (S)-11b”) in data set [2] is reported as 2–3 fold.
Turning to `N#Cc1ccc(C[C@@H](NC(=O)Nc2ccc(F)cc2)C(=O)N2CCc3ccccc32)cc1` [(R)-11e, (R)-1-(3-(4-Cyanophenyl)-1-(indolin-1-yl)-1-oxopropan-2-yl)-3-(4-fluorophenyl)urea], the “less stable than (R)- and (S)-11b” value in data set [2] was 2–3 fold.
With `N#Cc1ccc(C[C@H](NC(=O)Nc2ccc(F)cc2)C(=O)N2CCc3ccccc3C2)cc1` [(S)-11f, (S)-1-(3-(4-Cyanophenyl)-1-(3,4-dihydroisoquinolin-2(1H)-yl)-1oxopropan-2-yl)-3-(4-fluorophenyl)urea], the “IC50 at FPR2, range in words” value in data set [3] is reported as “nanomolar range”. For the same compound, the “less stable than (R)- and (S)-11b” value in data set [2] was 2–3 fold.
On to `N#Cc1ccc(C[C@@H](NC(=O)Nc2ccc(F)cc2)C(=O)N2CCc3ccccc3C2)cc1` [(R)-11f, (R)-1-(3-(4-Cyanophenyl)-1-(3,4-dihydroisoquinolin-2(1H)-yl)-1oxopropan-2-yl)-3-(4-fluorophenyl)urea], for which the “less stable than (R)- and (S)-11b” value in [2] is recorded as 2–3 fold.
As for `N#Cc1ccc(C[C@H](NC(=O)Nc2ccc(F)cc2)C(=O)N2CCC(F)(F)CC2)cc1` [(S)-11h, (S)-1-(3-(4-Cyanophenyl)-1-(4,4-difluoropiperidin-1-yl)-1-oxopropan-2-yl)-3-(4-fluorophenyl)urea], in data set [4] (11h vs 11b), the “loss of FPR2 potency versus the non-substituted counterpart” value stood at 20 fold. Further, in [1], the “cytotoxic effect in the MTT test” value is given as “did not exert any cytotoxic effects”.
Consider `N#Cc1ccc(C[C@H](NC(=O)Nc2ccc(F)cc2)C(=O)N2CCc3ccccc32)cc1` [(S)-11e, (S)-1-(3-(4-Cyanophenyl)-1-(indolin-1-yl)-1-oxopropan-2-yl)-3-(4-fluorophenyl)urea], for which, in data set [5], the “release of IL-1β and TNF-α under resting conditions” value (from here on “release of IL-1β and TNF-α”) is “did not induce the release”; the “effect on LPS-induced cytokines (IL-1β, TNF-α) production” value (“effect on LPS-induced cytokines” for short) is listed as “effectively decrease LPS-induced cytokines production”. In [6], the “effect on LPS-induced cell death (LDH release)” value is on record as “effectively blocked LPS-induced cell death” and the “effect on cell viability (LDH) under resting conditions” value was “did not induce any effect”. Further, the microsomal CLint – broadly, the capacity of the preparation to metabolise the compound, expressed as a volume cleared per time – at 2 h, 10 µM in [2] (rat, rat liver microsomes) came to 33 µL/min/mg. For the same compound, the half-life – broadly, the time needed for the level to fall by half in the phase considered – at 2 h, 10 µM in data set [2] (setting [10]) was 21 min. Besides, in [2], the “less stable than (R)- and (S)-11b” value is listed as 2–3 fold. Besides, the “effect on LPS-induced activation of caspase-3” value in [7] was “significantly reduced this activation”. In [8], the “effect on LPS-induced NO production” value is “effectively blocked” and the “effect on NO production under resting conditions” value is listed as “did not induce any effect”.
As for `N#Cc1ccc(C[C@@H](NC(=O)Nc2ccc(F)cc2)C(=O)N2CCCC2)cc1` [(R)-11c, (R)-1-(3-(4-Cyanophenyl)-1-oxo-1-(pyrrolidin-1-yl)propan-2-yl)-3-(4-fluorophenyl)urea], in data set [1], the “cytotoxic effect in the MTT test” value is “did not exert any cytotoxic effects”.
Take `N#Cc1ccc(C[C@@H](NC(=O)Nc2ccc(F)cc2)C(=O)NC2CCCCNC2=O)cc1` (stereo partly drawn) [(R)-11a, (2R)-3-(4-Cyanophenyl)-2-(3-(4-fluorophenyl)ureido)-N-(2-oxoazepan-3-yl)propenamide]: in data set [1], the “cytotoxic effect in the MTT test” value is reported as “did not exert any cytotoxic effects”. Moreover, the intrinsic clearance (microsomal CLint) at 2 h, 10 µM in data set [2] (rat, rat liver microsomes) is 5.5 µL/min/mg. In addition, the half-life at 2 h, 10 µM in [2] (setting [10]) worked out at 120 min.
As for `N#Cc1ccc(C[C@@H](NC(=O)Nc2ccc(F)cc2)C(=O)N2Cc3ccccc3C2)cc1` [(R)-11d, (R)-1-(3-(4-Cyanophenyl)-1-(isoindolin-2-yl)-1-oxopropan-2-yl)-3-(4-fluorophenyl)urea], the “less stable than (R)- and (S)-11b” value in data set [2] was 2–3 fold.
Take `N#Cc1ccc(C[C@H](NC(=O)Nc2ccc(F)cc2)C(=O)N2CCCC2)cc1` [(S)-11c, (S)-1-(3-(4-Cyanophenyl)-1-oxo-1-(pyrrolidin-1-yl)propan-2-yl)-3-(4-fluorophenyl)urea]: the “increase in FPR2 potency as compared to 2” value (“increase in FPR2 potency” below) in [4] is “equipotent”. In [1], the “cytotoxic effect in the MTT test” value is “did not exert any cytotoxic effects”. Further, the “Metabolic stability, % after 30 min incubation” value (from here on “Metabolic stability, %”) in data set [2] was found to be 65%. The microsomal CLint at 2 h, 10 µM in [2] (rat, rat liver microsomes) came out at 6.2 µL/min/mg.
For `N#Cc1ccc(C[C@H](NC(=O)Nc2ccc(F)cc2)C(=O)N2CCc3ccc(F)cc32)cc1` [(S)-11l, (S)-1-(3-(4-Cyanophenyl)-1-(6-fluoroindolin-1-yl)-1-oxopropan-2-yl)-3-(4-fluorophenyl)urea], in [9] (ip, 10 mg/kg), the time to peak (Tmax) (in general, the time at which the peak concentration occurs) is 30 min. The Tmax in [9] (iv, 1 mg/kg) was 5 min. Moreover, in data set [9] (mice, i.p. 10 mg/kg), the “blood-brain barrier permeation” value is “able to permeate the blood–brain barrier and to accumulate in the brain”. In addition, the “time until which the compound was detectable in plasma” value in [9] (mice, i.v. 1 mg/kg) stood at 4 h. Besides, in data set [5], the “release of IL-1β and TNF-α” value is on record as “did not induce the release”; the “effect on LPS-induced cytokines” value is recorded as “effectively decrease LPS-induced cytokines production”. In data set [6], the “effect on LPS-induced cell death (LDH release)” value is “effectively blocked LPS-induced cell death” and the “effect on cell viability (LDH) under resting conditions” value is reported as “did not induce any effect”. Also, the “Metabolic stability, %” value in [2] was determined as 33%. For the same compound, in [7], the “effect on LPS-induced activation of caspase-3” value is “significantly reduced this activation”. In addition, in [8], the “effect on LPS-induced NO production” value is reported as “effectively blocked” and the “effect on NO production under resting conditions” value is recorded as “did not induce any effect”.
As to `N#Cc1ccc(C[C@H](NC(=O)Nc2ccc(F)cc2)C(=O)N2CCCCC2)cc1` [(S)-11b, (S)-1-(3-(4-Cyanophenyl)-1-oxo-1-(piperidin-1-yl)propan-2-yl)-3-(4-fluorophenyl)urea], the “increase in FPR2 potency” value in data set [4] was found to be 4 fold. Besides, in data set [1], the “cytotoxic effect in the MTT test” value is given as “did not exert any cytotoxic effects”. Besides, the “Metabolic stability, %” value in [2] worked out at 34%. Further, the microsomal CLint at 2 h, 10 µM in data set [2] (rat, rat liver microsomes) was 13.9 µL/min/mg.
In the case of `N#Cc1ccc(C[C@H](NC(=O)Nc2ccc(F)cc2)C(=O)N2Cc3ccccc3C2)cc1` [(S)-11d, (S)-1-(3-(4-Cyanophenyl)-1-(isoindolin-2-yl)-1-oxopropan-2-yl)-3-(4-fluorophenyl)urea], in [2] (rat, rat liver microsomes), the intrinsic metabolic clearance (microsomal CLint) at 2 h, 10 µM is 24.7 µL/min/mg. For the same compound, the half-life at 2 h, 10 µM in [2] (setting [10]) came to 28 min. Moreover, the “less stable than (R)- and (S)-11b” value in data set [2] is given as 2–3 fold.
Regarding `N#Cc1ccc(C[C@@H](NC(=O)Nc2ccc(F)cc2)C(=O)N2CCc3cc(F)ccc32)cc1` [(R)-11i, (R)-1-(3-(4-Cyanophenyl)-1-(5-fluoroindolin-1-yl)-1-oxopropan-2-yl)-3-(4-fluorophenyl)urea], the “Metabolic stability, %” value in [2] was determined as 58%. This compound had an intrinsic clearance (microsomal CLint) at 2 h, 10 µM in [2] (rat, rat liver microsomes) of 6.4 µL/min/mg. The compound also yielded a half-life at 10 μM in [2] (setting [10]) of 108 min.
`N#Cc1ccc(C[C@H](NC(=O)Nc2ccc(F)cc2)C(=O)NC2CCCCNC2=O)cc1` (stereo partly drawn) [(S)-11a, (2S)-3-(4-Cyanophenyl)-2-(3-(4-fluorophenyl)ureido)-N-(2-oxoazepan-3-yl)propenamide]: in data set [4], the “increase in FPR2 potency” value turned out to be 20 fold. In [5], the “release of IL-1β and TNF-α” value is reported as “did not induce the release”; the “effect on LPS-induced cytokines” value is “effectively decrease LPS-induced cytokines production”. For the same compound, in [1], the “cytotoxic effect in the MTT test” value is listed as “did not exert any cytotoxic effects”. In data set [2] (rat, rat liver microsomes), this compound displayed a microsomal CLint at 2 h, 10 µM of 4.4 µL/min/mg. Besides, in data set [2] (setting [10]), the half-life at 2 h, 10 µM worked out at 157 min.
`N#Cc1ccc(C[C@H](NC(=O)Nc2ccc(F)cc2)C(=O)N2Cc3ccc(F)cc3C2)cc1` [(S)-11j, (S)-1-(3-(4-Cyanophenyl)-1-(5-fluoroisoindolin-2-yl)-1-oxopropan-2-yl)-3-(4-fluorophenyl)urea]: the intrinsic clearance (microsomal CLint) at 2 h, 10 µM in [2] (rat, rat liver microsomes) is 4.1 µL/min/mg.
For the compound `N#Cc1ccc(C[C@@H](NC(=O)Nc2ccc(F)cc2)C(=O)N2CCCc3ccccc32)cc1` [(R)-11g, (R)-1-(3-(4-Cyanophenyl)-1-(3,4-dihydroquinolin-1(2H)-yl)-1-oxopropan-2-yl)-3-(4-fluorophenyl)urea], the “less stable than (R)- and (S)-11b” value in data set [2] is recorded as 2–3 fold.
`N#Cc1ccc(C[C@@H](NC(=O)Nc2ccc(F)cc2)C(=O)N2CCc3ccc(F)cc32)cc1` [(R)-11l, (R)-1-(3-(4-Cyanophenyl)-1-(6-fluoroindolin-1-yl)-1-oxopropan-2-yl)-3-(4-fluorophenyl)urea] returned an intrinsic metabolic clearance (microsomal CLint) at 2 h, 10 µM in data set [2] (rat, rat liver microsomes) of 23.3 µL/min/mg. The same compound came in with a half-life at 2 h, 10 µM in data set [2] (setting [10]) of 30 min.
